The source of these data is US20160375006A1, “USES OF PARALOG-SELECTIVE INHIBITORS OF GSK3 KINASES” (priority 2012, published 2016).

Like-named read-outs stand apart in the source and are kept apart here. A value given as a limit tells only on which side of the number the result lay.

For assay [1], the target named is T1, GSK3α (Homo sapiens, UniProt P49840). Briefly: biochemical.
For assay [2], the target named is T1, GSK3α. As to conditions: for IC50: read-out: Caliper Assay, GSK3α IC50.
For assay [3], the target named is T2, GSK3β (Homo sapiens, UniProt P49841). The experiment in a line: biochemical.
T2 sequence (P49841 whole entry): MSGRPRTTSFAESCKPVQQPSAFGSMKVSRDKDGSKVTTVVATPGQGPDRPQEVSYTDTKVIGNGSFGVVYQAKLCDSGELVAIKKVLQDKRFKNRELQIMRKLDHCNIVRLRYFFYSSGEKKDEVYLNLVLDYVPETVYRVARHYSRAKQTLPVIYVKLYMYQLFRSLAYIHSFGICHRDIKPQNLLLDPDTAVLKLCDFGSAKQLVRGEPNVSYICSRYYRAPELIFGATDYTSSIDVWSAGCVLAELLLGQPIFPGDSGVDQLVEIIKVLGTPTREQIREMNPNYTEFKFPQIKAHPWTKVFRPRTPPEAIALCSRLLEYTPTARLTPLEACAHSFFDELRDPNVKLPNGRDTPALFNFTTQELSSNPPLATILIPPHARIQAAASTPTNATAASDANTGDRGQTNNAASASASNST
Procedure: (§1) Reactions were terminated by the addition of 10 mM EDTA. Substrate and product were separated electrophoretically and fluorescence intensity of the substrate and product was determined by Labchip EZ Reader II (Caliper Life Sciences, MA). The kinase activity was measured as percent conversion. The reactions were performed in duplicate for each sample. […] The results were analyzed by Genedata Assay Analyzer. The percent inhibition was plotted against the compound concentration and the IC50 value was determined from the logistic dose-response curve fitting.
In assay [4] the target is T2, GSK3β. The conditions noted are these: Caliper assay; GSK3β over GSK3α.
Procedure: as §1
Setting [5] is: Caliper assay, GSK3α over GSK3β.

T1 sequence (P49840 whole entry): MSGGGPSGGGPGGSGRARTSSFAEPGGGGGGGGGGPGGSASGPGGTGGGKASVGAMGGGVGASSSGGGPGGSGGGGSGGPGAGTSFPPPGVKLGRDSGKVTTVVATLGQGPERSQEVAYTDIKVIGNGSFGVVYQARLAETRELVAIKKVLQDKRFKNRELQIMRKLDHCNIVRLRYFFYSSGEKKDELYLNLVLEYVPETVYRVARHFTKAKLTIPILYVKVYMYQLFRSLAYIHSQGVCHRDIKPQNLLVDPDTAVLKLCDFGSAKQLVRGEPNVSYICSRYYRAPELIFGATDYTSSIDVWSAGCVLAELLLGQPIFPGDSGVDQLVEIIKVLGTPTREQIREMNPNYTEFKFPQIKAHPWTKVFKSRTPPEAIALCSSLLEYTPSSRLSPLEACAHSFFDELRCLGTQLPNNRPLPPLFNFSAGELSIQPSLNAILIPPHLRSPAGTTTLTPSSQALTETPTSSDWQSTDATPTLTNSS

Consider `CC1(C)CC(=O)C2=C(C1)Nc1n[nH]cc1C2(C)c1cccc(F)c1` (racemic) [Compound 201], for which the IC50 against GSK3α [1] was found to be 239 nM; against GSK3β [3], 901 nM. Also, the GSK3α fold selectivity on GSK3α [2] (setting [5]) is given as 3.8 fold.
For `CC1(C)CC(=O)C2=C(C1)Nc1n[nH]cc1C2(C)c1cccc(C(F)(F)F)c1` (racemic) [Compound 206] the same measures were 0.4 nM, 4 nM and 10.0 fold.
`CCC1(c2cccc(Cl)c2)C2=C(CC(C)(C)CC2=O)Nc2n[nH]cc21` (racemic) [Compound 218]: the IC50 against GSK3α [1] was 54 nM; at GSK3β [3], 312 nM. The GSK3α fold selectivity on GSK3α [2] (setting [5]) is reported as 5.8 fold.
For `CCC1(c2cccc(C(C)(C)C)c2)C2=C(CC(C)(C)CC2=O)Nc2n[nH]cc21` (racemic) [Compound 225] the same measures were 13 nM, 86 nM and 6.6 fold.
For `CCCC1(c2ccccc2)C2=C(CC(C)(C)CC2=O)Nc2n[nH]cc21` (racemic) [Compound 228] the same measures were 280 nM, 1310 nM and 4.7 fold.
With `CC(C)C1(c2ccccc2)C2=C(CC(C)(C)CC2=O)Nc2n[nH]cc21` (racemic) [Compound 231], the values for the IC50 against GSK3α [1] and against GSK3β [3] were 644 nM and 1890 nM, respectively. The compound further yielded a GSK3α fold selectivity on GSK3α [2] (setting [5]) of 2.9 fold.
For `CCC1(c2ccccc2)C2=C(CC3(COC3)CC2=O)Nc2n[nH]cc21` (racemic) [Compound 236] the same measures were 1230 nM, 7860 nM and 6.4 fold.
For `CCC1(c2ccccc2)C2=C(CC(C)(C)CC2=O)Nc2n[nH]c(C3CC3)c21` (racemic) [Compound 244] the same measures were 23 nM, 43 nM and 1.9 fold.
Take `CC1(C)CC(=O)C2=C(C1)Nc1n[nH]c(C(F)(F)F)c1C2c1cccc(OC(F)(F)F)c1` (stereo not drawn) [Compound 57]: the IC50 on GSK3α [2] and against GSK3β [3] was less than 100 nM throughout.
For the compound `Cc1[nH]nc2c1[C@@](c1ccccc1)(C(F)(F)F)C1=C(CC(C)(C)CC1=O)N2` [Compound 93, 1,6,6-trimethyl-9-phenyl-9-(trifluoromethyl)-5,6,7,9-tetrahydro-2H-pyrazolo[3,4-b]quinolin-8(4H)-one], the IC50 on GSK3α [2] was less than 100 nM.
At GSK3α [2] (GSK3α over GSK3β), `Cc1[nH]nc2c1[C@@](C)(c1cccc(C#N)c1)C1=C(CC(C)(C)CC1=O)N2` [Compound 97, 3-(1,6,6,9-tetramethyl-8-oxo-4,5,6,7,8,9-hexahydro-2H-pyrazolo[3,4-b]quinolin-9-yl)benzonitrile] showed a GSK3α fold selectivity of 5.9 fold.
On the same count and under the same terms, the result for `Cc1[nH]nc2c1C1(CCCC1)C1=C(CC(C)(C)CC1=O)N2` [Compound 102] reads 1.9 fold; that for `COC(=O)c1[nH]nc2c1C(C)(c1ccccc1)C1=C(CC(C)(C)CC1=O)N2` (stereo not drawn) [Compound 104], 1.5 fold; that for `CC1(C)CC(=O)C2=C(C1)Nc1n[nH]c(Cl)c1C2(C)c1ccccc1` (stereo not drawn) [Compound 110], 1.8 fold.
Same read-out and setting: in the case of `CC1(C)CC(=O)C2=C(C1)Nc1n[nH]c(Br)c1C2(C)c1ccccc1` (stereo not drawn) [Compound 111] it was 3.1 fold; in that of `CC1(C)CC(=O)C2=C(C1)Nc1n[nH]c(C3CC3)c1C2(C)c1ccccc1F` (stereo not drawn) [Compound 116], 1.1 fold.
At GSK3α [2], `CC1(C)CC(=O)C2=C(C1)Nc1n[nH]c(C3CC3)c1C2(C)c1cccc(C(F)(F)F)c1` (stereo not drawn) [Compound 118] came in with a GSK3α fold selectivity of 1.1 fold.
On to `Cc1[nH]nc2c1[C@](C)(c1ccccc1)C1=C(CC(C)(C)CC1=O)N2` [Compound 123], for which the GSK3α fold selectivity at GSK3α [2] (GSK3α over GSK3β) is given as 3.6 fold. The same compound showed a half-maximal inhibitory concentration (IC50) at GSK3β [3] of less than 100 nM.
For `COc1cc(F)ccc1[C@@H]1C2=C(CC(C)(C)CC2=O)Nc2n[nH]c(C(C)C)c21` [Compound 324], the IC50 was 920 nM against GSK3α [1] and 332 nM at GSK3β [3]. Besides, the GSK3β fold selectivity on GSK3β [4] came to 2.8 fold.
